Results on 32 compounds are retold here after ChEMBL document CHEMBL4266006, “Synthesis and Evaluation of Aryl Quinolines as HIV-1 Integrase Multimerization Inhibitors” (ACS Med Chem Lett, 2018).

The target of this assay is Human immunodeficiency virus type 1 integrase (Human immunodeficiency virus 1, UniProt Q7ZJM1). The assay is described as follows: Inhibition of N-terminal His/flag-tagged HIV1 integrase expressed in Escherichia coli BL21 (DE3) incubated for 2.5 hrs by HTRF assay.
Chain of Human immunodeficiency virus type 1 integrase (Q7ZJM1 whole entry): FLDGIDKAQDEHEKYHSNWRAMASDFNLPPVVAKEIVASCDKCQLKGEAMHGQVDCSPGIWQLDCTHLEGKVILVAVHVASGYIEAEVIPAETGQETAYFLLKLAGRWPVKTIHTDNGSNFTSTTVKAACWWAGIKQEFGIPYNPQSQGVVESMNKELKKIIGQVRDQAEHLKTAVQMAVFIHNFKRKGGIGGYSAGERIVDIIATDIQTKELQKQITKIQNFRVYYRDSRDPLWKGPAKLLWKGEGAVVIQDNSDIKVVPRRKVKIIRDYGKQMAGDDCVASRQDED

As a reminder, the EC50 is the concentration giving half of the maximal effect. Turning to `Cc1nc2ccccc2c(-c2ccccc2)c1C(OC(C)(C)C)C(=O)O` (configuration not stated), the EC50 (read-out: EC50) was 1320 nM.

Consider `CSc1ccccc1-c1c(C(OC(C)(C)C)C(=O)O)c(C)nc2ccccc12` (configuration not stated), for which, under “read-out: EC50”, the EC50 is 4510 nM. Take `Cc1nc2ccccc2c(-c2ccc(C#N)cc2)c1C(OC(C)(C)C)C(=O)O` (configuration not stated): under “read-out: EC50”, the EC50 stood at 2970 nM.

With `Cc1ccc(-c2c(C(OC(C)(C)C)C(=O)O)c(C)nc3ccccc23)cc1` (configuration not stated), for the setting “read-out: EC50”, the EC50 is 240 nM. For the compound `Cc1nc2ccccc2c(-c2cncnc2)c1C(OC(C)(C)C)C(=O)O` (configuration not stated), the EC50 result is recorded as “Not Active”. For the compound `Cc1nc2ccccc2c(-c2ccc(C(F)(F)F)cc2)c1C(OC(C)(C)C)C(=O)O` (configuration not stated), the EC50 (read-out: EC50) came out at 720 nM.

Regarding `Cc1nc2ccc(Br)cc2c(-c2ccc(Cl)cc2)c1C(OC(C)(C)C)C(=O)O` (configuration not stated), the EC50 (read-out: EC50) came out at 70 nM. Take `CC(=O)Nc1ccc(-c2c(C(OC(C)(C)C)C(=O)O)c(C)nc3ccccc23)cc1` (configuration not stated): the EC50 (read-out: EC50) was 8410 nM. Consider `Cc1nc2ccccc2c(-c2ccc(-c3ccccc3)cc2)c1C(OC(C)(C)C)C(=O)O` (configuration not stated), for which the EC50 entry was “Not Active”. With `Cc1nc2ccccc2c(-c2cccc(Cl)c2)c1C(OC(C)(C)C)C(=O)O` (configuration not stated), the EC50 (read-out: EC50) is 3790 nM. Still for that read-out and setting: the result for `COc1ccc(-c2c(C(OC(C)(C)C)C(=O)O)c(C)nc3ccccc23)cc1OC` (configuration not stated) reads 3700 nM. With `Cc1nc2ccccc2c(-c2cccc(C#N)c2)c1C(OC(C)(C)C)C(=O)O` (configuration not stated), the EC50 entry is given as “Not Active”. On to `Cc1ccccc1-c1c(C(OC(C)(C)C)C(=O)O)c(C)nc2ccccc12` (configuration not stated), for which the EC50 (read-out: EC50) turned out to be 510 nM.

Regarding `Cc1nc2ccccc2c(-c2ccoc2)c1C(OC(C)(C)C)C(=O)O` (configuration not stated), the EC50 (read-out: EC50) was determined as 2210 nM.

Turning to `COc1cccc(-c2c(C(OC(C)(C)C)C(=O)O)c(C)nc3ccccc23)c1` (configuration not stated), the EC50 (read-out: EC50) amounted to 1380 nM. Still for that read-out and setting: the result for `COc1ccccc1-c1c(C(OC(C)(C)C)C(=O)O)c(C)nc2ccccc12` (configuration not stated) reads 8390 nM.

For `CSc1ccc(-c2c(C(OC(C)(C)C)C(=O)O)c(C)nc3ccccc23)cc1` (configuration not stated), the EC50 (read-out: EC50) turned out to be 490 nM. Same read-out and setting: the result for `Cc1nc2ccccc2c(-c2ccc(F)cc2)c1C(OC(C)(C)C)C(=O)O` (configuration not stated) reads 490 nM.

With `Cc1nc2ccccc2c(-c2cccs2)c1C(OC(C)(C)C)C(=O)O` (configuration not stated), the EC50 result is given as “Not Active”. Take `CC(=O)c1ccc(-c2c(C(OC(C)(C)C)C(=O)O)c(C)nc3ccccc23)cc1` (configuration not stated): the EC50 (read-out: EC50) came out at 1390 nM. Turning to `Cc1nc2ccccc2c(-c2ccc(Cl)cc2)c1C(OC(C)(C)C)C(=O)O` (configuration not stated), the EC50 (read-out: EC50) came out at 100 nM.

With `Cc1nc2ccccc2c(-c2ccccc2C#N)c1C(OC(C)(C)C)C(=O)O` (configuration not stated), the concentration for a half-maximal effect (EC50) (read-out: EC50) stood at 11100 nM. Same read-out and setting: the result for `Cc1cccc(-c2c(C(OC(C)(C)C)C(=O)O)c(C)nc3ccccc23)c1` (configuration not stated) reads 950 nM. Still for that read-out and setting: the result for `Cc1nc2ccccc2c(-c2ccc3c(c2)CCCO3)c1C(OC(C)(C)C)C(=O)O` (configuration not stated) reads 27 nM. In the case of `Cc1nc2ccccc2c(-c2ccccc2Cl)c1C(OC(C)(C)C)C(=O)O` (configuration not stated), the EC50 (read-out: EC50) was determined as 260 nM. On to `Cc1nc2ccccc2c(-c2ccc3c(c2)c2ccccc2n3-c2ccccc2)c1C(OC(C)(C)C)C(=O)O` (configuration not stated), for which the EC50 entry is “Not Active”. In the case of `COc1ccc(-c2c(C(OC(C)(C)C)C(=O)O)c(C)nc3ccccc23)cc1` (configuration not stated), the EC50 (read-out: EC50) was determined as 230 nM. Same read-out and setting: the result for `Cc1nc2ccccc2c(-c2ccc3c(c2)OCCO3)c1C(OC(C)(C)C)C(=O)O` (configuration not stated) reads 80 nM; that for `Cc1nc2ccccc2c(-c2cccc(F)c2)c1C(OC(C)(C)C)C(=O)O` (configuration not stated), 2110 nM. Same read-out and setting: the result for `CSc1cccc(-c2c(C(OC(C)(C)C)C(=O)O)c(C)nc3ccccc23)c1` (configuration not stated) reads 1000 nM; that for `Cc1nc2ccccc2c(-c2ccc(OC(F)(F)F)cc2)c1C(OC(C)(C)C)C(=O)O` (configuration not stated), 350 nM; that for `Cc1nc2ccccc2c(-c2ccccc2F)c1C(OC(C)(C)C)C(=O)O` (configuration not stated), 580 nM.
